The record followed here is patent publication US11161850B2, “Fused pyrazine derivatives as A2A / A2B inhibitors” (Incyte Corporation, priority 2018, dated 2021).

The target in one test is Adenosine A2A (Homo sapiens (Human), UniProt P29274). Kind of test: A2A Tag-Lite HTRF assay. It counts as binding. The text has this:
Example C. A2A Tag-Lite® HTRF Assay
For orientation: TR-FRET usually uses a lanthanide donor and a delayed reading to cut background.

Test [1] addresses human adenosine A2B receptor (Homo sapiens (Human), UniProt P29275). Kind of test: Adenosine A2B Receptor Cyclic AMP GS Assay. It counts as cell-based. Conditions: HEK-293 cells expressing human A2B, agonist NECA 12 nM. The method, then:
Example B. Adenosine A2B Receptor Cyclic AMP GS Assay
Stably transfected HEK-293 cells expressing the human adenosine A2B receptor (Perkin Elmer) were maintained in MEM culture medium with 10% FBS and 100 μg/mL Geneticin (Life Technologies). 18 to 24 hours prior to assay, geneticin was removed from culture. The cisbio cAMP-GS Dynamic kit utilizing the FRET (Fluorescence Resonance Energy Transfer) technology was used to measure cAMP accumulation in the cells. Compounds of the present disclosure at an appropriate concentration were mixed with 10000 cells/well in white 96 well half area plates (Perkin Elmer) for 30 min at room temperature gently shaking. Agonist, NECA (R&D Technologies) at 12 nM was added to each well for 60 min at room temperature gently shaking. Detection reagents, d2-labeled cAMP (acceptor) and anti-cAMP cryptate (donor) were added to each well for 60 min at rt gently shaking. Plates were read on Pherastar (BMG Labtech), fluorescence ratio 665/620 was calculated and EC50 determination was performed by fitting the curve of percent of control versus the log of the compound concentration using GraphPad Prism.

The mark [2] stands for this setting: Tag-Lite Adenosine A2A labeled cells, fluorescent ligand 12.5 nM, read-out: A2A_Ki.
The mark [3] stands for this setting: read-out: A2A_Ki, Tag-Lite Adenosine A2A labeled cells, fluorescent ligand 12.5 nM.

Like-named read-outs stand apart in the source and are kept apart here.

Adenosine A2A, sequence (P29274 whole entry): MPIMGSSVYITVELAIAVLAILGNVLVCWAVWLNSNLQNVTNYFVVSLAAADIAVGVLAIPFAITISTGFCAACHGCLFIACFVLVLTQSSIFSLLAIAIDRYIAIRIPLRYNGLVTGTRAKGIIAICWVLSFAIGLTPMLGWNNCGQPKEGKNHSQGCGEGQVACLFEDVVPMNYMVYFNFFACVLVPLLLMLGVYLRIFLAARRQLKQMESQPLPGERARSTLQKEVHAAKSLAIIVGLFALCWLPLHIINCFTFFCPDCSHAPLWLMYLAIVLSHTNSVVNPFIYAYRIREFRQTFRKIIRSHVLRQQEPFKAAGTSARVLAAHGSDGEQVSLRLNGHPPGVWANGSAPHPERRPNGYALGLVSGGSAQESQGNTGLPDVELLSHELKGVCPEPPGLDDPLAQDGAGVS
human adenosine A2B receptor, sequence (P29275 whole entry): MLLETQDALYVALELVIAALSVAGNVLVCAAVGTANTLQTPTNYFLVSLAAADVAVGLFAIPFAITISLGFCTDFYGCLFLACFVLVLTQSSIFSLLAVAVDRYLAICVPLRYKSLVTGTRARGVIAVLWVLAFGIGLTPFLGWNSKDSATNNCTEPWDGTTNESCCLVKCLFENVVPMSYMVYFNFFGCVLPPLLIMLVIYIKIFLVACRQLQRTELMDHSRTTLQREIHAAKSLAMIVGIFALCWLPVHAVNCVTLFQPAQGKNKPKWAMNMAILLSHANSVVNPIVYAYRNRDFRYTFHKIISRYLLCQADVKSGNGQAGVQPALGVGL

As to `N#Cc1cccc(-c2nc(N)c3nc(Cn4cc5ccccc5n4)nn3c2-c2ccncn2)c1` [Example 47, 3-(2-((2H-Indazol-2-yl)methyl)-8-amino-5-(pyrimidin-4-yl)-[1,2,4]triazolo[1,5-a]pyrazin-6-yl)benzonitrile], the Ki at Adenosine A2A (setting [2]) was below 0.01 µM. Also, in test [1] (A2B_cAMP_EC50 (nM)), the EC50 lay within 10 to 100 nM.

On Adenosine A2A, `N#Cc1cccc(-c2nc(N)c3nc(C(O)c4c(F)cccc4F)nn3c2-c2cnco2)c1` (single isomer, unassigned) [Example 105, 3-(8-amino-2-((2,6-difluorophenyl)(hydroxy)methyl)-5-(oxazol-5-yl)-[1,2,4]triazolo[1,5-a]pyrazin-6-yl)benzonitrile] registered a Ki below 0.01 µM. The compound also registered an EC50 in test [1] (A2B_cAMP_EC50 (nM)) below 10 nM.

As for `N#Cc1cccc(-c2cn3nc(Cc4ccccn4)cc3c(N)n2)c1` [Example 16, 3-(4-Amino-2-(pyridin-2-ylmethyl)pyrazolo[1,5-a]pyrazin-6-yl)benzonitrile], the Ki on Adenosine A2A (setting [2]) is below 0.01 µM. Also, in test [1] (A2B_cAMP_EC50 (nM)), the EC50 was below 10 nM.

For `N#Cc1cccc(-c2nc(N)c3cc(C4=CCOCC4)nn3c2-c2ccncn2)c1` [Example 24, 3-(4-Amino-2-(3,6-dihydro-2H-pyran-4-yl)-7-(pyrimidin-4-yl)pyrazolo[1,5-a]pyrazin-6-yl)benzonitrile], the Ki on Adenosine A2A (setting [2]) is below 0.01 µM. For the same compound, in test [1] (A2B_cAMP_EC50 (nM)), the EC50 lay in the range of 10 to 100 nM.

As to `N#Cc1cccc(-c2nc(N)c3nc(C(O)c4cc(F)ccc4F)nn3c2-c2ccncn2)c1` (single isomer, unassigned) [Example 52, 3-(8-Amino-2-((2,5-difluorophenyl)(hydroxy)methyl)-5-(pyrimidin-4-yl)-[1,2,4]triazolo[1,5-a]pyrazin-6-yl)benzonitrile], the Ki on Adenosine A2A (setting [3]) is below 0.01 µM. In test [1] (read-out: A2B_cAMP_EC50), the EC50 is below 10 nM.

Regarding `N#Cc1cccc(-c2nc(N)c3nc(Oc4ccccc4F)nn3c2-c2ccncn2)c1` [Example 39, 3-(8-Amino-2-(2-fluorophenoxy)-5-(pyrimidin-4-yl)-[1,2,4]triazolo[1,5-a]pyrazin-6-yl)benzonitrile], on Adenosine A2A (setting [2]), the Ki was below 0.01 µM. In test [1] (A2B_cAMP_EC50 (nM)), this compound came in with an EC50 below 10 nM.

As to `N#Cc1cccc(-c2nc(N)c3nc(C(O)c4c(F)cccc4CN4CCCC4)nn3c2-c2ccncn2)c1` (single isomer, unassigned) [Example 111, 3-(8-amino-2-((2-fluoro-6-(pyrrolidin-1-ylmethyl)phenyl)(hydroxy)methyl)-5-(pyrimidin-4-yl)-[1,2,4]triazolo[1,5-a]pyrazin-6-yl)benzonitrile], on Adenosine A2A (setting [3]), the Ki was below 0.01 µM. The same compound had an EC50 in test [1] (A2B_cAMP_EC50 (nM)) below 10 nM.

For `N#Cc1cccc(-c2nc(N)c3nc(Cc4ncccc4-c4cnco4)nn3c2-c2ccncn2)c1` [Example 82, 3-(8-amino-2-((3-(oxazol-5-yl)pyridin-2-yl)methyl)-5-(pyrimidin-4-yl)-[1,2,4]triazolo[1,5-a]pyrazin-6-yl)benzonitrile], the Ki at Adenosine A2A (setting [2]) is below 0.01 µM. The EC50 in test [1] (A2B_cAMP_EC50 (nM)) was below 10 nM.

For `N#Cc1cccc(-c2nc(N)c3nc(Cc4c(F)cccc4CN4CCNC(=O)C4)nn3c2-c2ccncn2)c1` [Example 70, 3-(8-amino-2-(2-fluoro-6-((3-oxopiperazin-1-yl)methyl)benzyl)-5-(pyrimidin-4-yl)-[1,2,4]triazolo[1,5-a]pyrazin-6-yl)benzonitrile], the Ki at Adenosine A2A (setting [2]) was below 0.01 µM. Also, the EC50 in test [1] (A2B_cAMP_EC50 (nM)) fell in the range of 10 to 100 nM.

As for `N#CCCn1cc(-c2cccc(F)c2Cc2nc3c(N)nc(-c4cccc(C#N)c4F)cn3n2)cn1` [Example 117, 3-(8-amino-2-(2-(1-(2-cyanoethyl)-1H-pyrazol-4-yl)-6-fluorobenzyl)-[1,2,4]triazolo[1,5-a]pyrazin-6-yl)-2-fluorobenzonitrile], the Ki on Adenosine A2A (setting [2]) is below 0.01 µM. This compound gave an EC50 in test [1] (A2B_cAMP_EC50 (nM)) below 10 nM.

Turning to `CN1CCN(c2cc(-c3cc4c(N)nc(-c5cccc(C#N)c5)c(-c5ccncc5)n4n3)ccn2)CC1` [Example 26, 3-(4-Amino-2-(2-(4-methylpiperazin-1-yl)pyridin-4-yl)-7-(pyridin-4-yl)pyrazolo[1,5-a]pyrazin-6-yl)benzonitrile], the Ki on Adenosine A2A (setting [2]) is below 0.01 µM. This compound returned an EC50 in test [1] (A2B_cAMP_EC50 (nM)) of 10 to 100 nM.

As to `Cc1ncoc1-c1c(-c2cccc(C#N)c2)nc(N)c2nc(C(=O)N3CCC3)nn12` [Example 61, 3-(8-Amino-2-(azetidine-1-carbonyl)-5-(4-methyloxazol-5-yl)-[1,2,4]triazolo[1,5-a]pyrazin-6-yl)benzonitrile], the Ki at Adenosine A2A (setting [2]) was below 0.01 µM. In test [1] (A2B_cAMP_EC50 (nM)), this compound returned an EC50 below 10 nM.

For the compound `CCNC(=O)c1cc2c(N)nc(-c3cccc(C#N)c3)c(C(C)(F)F)n2n1` [Example 5, 4-Amino-6-(3-cyanophenyl)-7-(1,1-difluoroethyl)-N-ethylpyrazolo[1,5-a]pyrazine-2-carboxamide], on Adenosine A2A (setting [2]), the Ki was below 0.01 µM. The EC50 in test [1] (A2B_cAMP_EC50 (nM)) fell in the range of 100 to 1000 nM.

With `CCN(C)C(=O)c1cc2c(N)nc(-c3cccc(C#N)c3)c(-c3ccncn3)n2n1` [Example 11, 4-Amino-6-(3-cyanophenyl)-N-ethyl-N-methyl-7-(pyrimidin-4-yl)pyrazolo[1,5-a]pyrazine-2-carboxamide], the Ki at Adenosine A2A (setting [2]) was below 0.01 µM. Further, the EC50 in test [1] (A2B_cAMP_EC50 (nM)) was below 10 nM.

For the compound `N#Cc1cccc(-c2nc(N)c3nc(C(O)c4c(F)cccc4F)nn3c2-c2cnco2)c1` (single isomer, unassigned) [Example 106, 3-(8-amino-2-((2,6-difluorophenyl)(hydroxy)methyl)-5-(oxazol-5-yl)-[1,2,4]triazolo[1,5-a]pyrazin-6-yl)benzonitrile], the Ki on Adenosine A2A (setting [3]) is below 0.01 µM. Also, the EC50 in test [1] (read-out: A2B_cAMP_EC50) is below 10 nM.

With `CCn1nncc1-c1c(-c2cccc(C#N)c2)nc(N)c2cc(Cc3ccccn3)nn12` [Example 36, 3-(4-Amino-7-(1-ethyl-1H-1,2,3-triazol-5-yl)-2-(pyridin-2-ylmethyl)pyrazolo[1,5-a]pyrazin-6-yl)benzonitrile], the Ki on Adenosine A2A (setting [2]) was below 0.01 µM. This compound gave an EC50 in test [1] (A2B_cAMP_EC50 (nM)) below 10 nM.

At Adenosine A2A, `N#Cc1cccc(-c2nc(N)c3nc(C(O)c4ccccc4Cl)nn3c2-c2ccncn2)c1` (single isomer, unassigned) [Example 57, 3-(8-Amino-2-((2-chlorophenyl)(hydroxy)methyl)-5-(pyrimidin-4-yl)-[1,2,4]triazolo[1,5-a]pyrazin-6-yl)benzonitrile] yielded a Ki below 0.01 µM. Moreover, the EC50 in test [1] (A2B_cAMP_EC50 (nM)) was below 10 nM.

With `Cc1nc(C(C)O)c(-c2c(-c3cccc(C#N)c3)nc(N)c3cc(Cc4ccccn4)nn23)o1` (centres unmarked) [Example 34, 3-(4-Amino-7-(4-(1-hydroxyethyl)-2-methyloxazol-5-yl)-2-(pyridin-2-ylmethyl)pyrazolo[1,5-a]pyrazin-6-yl)benzonitrile], at Adenosine A2A (setting [2]), the Ki was below 0.01 µM. Further, the EC50 in test [1] (A2B_cAMP_EC50 (nM)) was in the range of 10 to 100 nM.

Regarding `N#Cc1cccc(-c2nc(N)c3nc(Cn4cccc5ccnc4-5)nn3c2-c2ccncn2)c1` [Example 33, 3-(2-((7H-pyrrolo[2,3-b]pyridin-7-yl)methyl)-8-amino-5-(pyrimidin-4-yl)-[1,2,4]triazolo[1,5-a]pyrazin-6-yl)benzonitrile], the Ki at Adenosine A2A (setting [2]) is below 0.01 µM. For the same compound, the EC50 in test [1] (A2B_cAMP_EC50 (nM)) was below 10 nM.

With `CC(=O)N1CCC(Cc2cccc(F)c2Cc2nc3c(N)nc(-c4cccc(C#N)c4F)cn3n2)CC1` [Example 91, 3-(2-(2-((1-acetylpiperidin-4-yl)methyl)-6-fluorobenzyl)-8-amino-[1,2,4]triazolo[1,5-a]pyrazin-6-yl)-2-fluorobenzonitrile], the Ki at Adenosine A2A (setting [2]) is below 0.01 µM. In addition, the EC50 in test [1] (A2B_cAMP_EC50 (nM)) was 10 to 100 nM.

Turning to `N#Cc1cccc(-c2nc(N)c3nc(Cc4ccccn4)nn3c2-c2ccc(O)nc2)c1` [Example 62, 3-(8-amino-5-(6-hydroxypyridin-3-yl)-2-(pyridin-2-ylmethyl)-[1,2,4]triazolo[1,5-a]pyrazin-6-yl)benzonitrile], the Ki at Adenosine A2A (setting [2]) was below 0.01 µM. The same compound had an EC50 in test [1] (A2B_cAMP_EC50 (nM)) below 10 nM.

`Cn1nc(-c2c(-c3cccc(C#N)c3)nc(N)c3nc(Cc4ccccn4)nn23)ccc1=O` [Example 29, 3-(8-Amino-5-(1-methyl-6-oxo-1,6-dihydropyridazin-3-yl)-2-(pyridin-2-ylmethyl)-[1,2,4]triazolo[1,5-a]pyrazin-6-yl)benzonitrile] came in with a Ki at Adenosine A2A below 0.01 µM. The same compound displayed an EC50 in test [1] (A2B_cAMP_EC50 (nM)) below 10 nM.

`N#Cc1cccc(-c2nc(N)c3nc(C(O)c4cc(F)ccc4F)nn3c2-c2ccncn2)c1` (single isomer, unassigned) [Example 51, 3-(8-Amino-2-((2,5-difluorophenyl)(hydroxy)methyl)-5-(pyrimidin-4-yl)-[1,2,4]triazolo[1,5-a]pyrazin-6-yl)benzonitrile] returned a Ki at Adenosine A2A below 0.01 µM. This compound came in with an EC50 in test [1] (A2B_cAMP_EC50 (nM)) below 10 nM.

As for `N#Cc1cccc(-c2nc(N)c3nc(Cc4cccc5ocnc45)nn3c2-c2ccncn2)c1` [Example 63, 3-(8-amino-2-(benzo[d]oxazol-4-ylmethyl)-5-(pyrimidin-4-yl)-[1,2,4]triazolo[1,5-a]pyrazin-6-yl)benzonitrile], the Ki at Adenosine A2A (setting [2]) was below 0.01 µM. Besides, in test [1] (A2B_cAMP_EC50 (nM)), the EC50 was below 10 nM.

At Adenosine A2A, `N#Cc1cccc(-c2nc(N)c3cc(CN4CCC4)nn3c2-c2ccncn2)c1` [Example 13, 3-(4-Amino-2-(azetidin-1-ylmethyl)-7-(pyrimidin-4-yl)pyrazolo[1,5-a]pyrazin-6-yl)benzonitrile] had a Ki of 0.01 to 0.1 µM. The same compound gave an EC50 in test [1] (A2B_cAMP_EC50 (nM)) of 100 to 1000 nM.
